This note sets out measurements from PubChem BioAssay (NCI).

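Where inhibition never reached the appropriate level, the endpoint shown equals the highest concentration tested. Otherwise, values were interpolated linearly from a five-concentration, 48-hour dose response in 96-well plates. At the TGI there is no net growth.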

Test systems include 786-0 renal; COLO 205 colon; EKVX NSCLC; HCC-2998 colon; HCT-116 colon; HOP-62 NSCLC; HS 578T breast; HT29 colon; IGROV1 ovarian; KM12 colon; MALME-3M melanoma; MDA-N; NCI-H226 lung; OVCAR-5 ovarian; RXF 393 renal; SF-268 CNS; SF-295 CNS; SNB-19 CNS; SNB-75 CNS.
Holding throughout (assay): NCI-60 cell line screen, 48 h

Regarding `N#C/C=C\c1ccc(-c2cc(C(F)(F)F)cc(C(F)(F)F)c2)o1`, the TGI was 70.5 µM in the assay with 786-0 renal; above 100 µM in the assay on COLO 205 colon; above 100 µM in the assay with EKVX NSCLC; above 100 µM in the assay on HCC-2998 colon; above 100 µM in the assay on HCT-116 colon; 47.3 µM in the assay on HOP-62 NSCLC. Also, the TGI with HS 578T breast was 54.8 µM; in the assay on HT29 colon, above 100 µM; in the assay on IGROV1 ovarian it was above 100 µM; in the assay on KM12 colon, above 100 µM; in the assay with MALME-3M melanoma it was above 100 µM; in the assay on MDA-N, 71.6 µM. Also, the TGI is above 100 µM with NCI-H226 lung; above 100 µM in the assay with OVCAR-5 ovarian; above 100 µM in the assay on RXF 393 renal; 69.7 µM in the assay with SF-268 CNS; 46 µM in the assay on SF-295 CNS; above 100 µM with SNB-19 CNS. Moreover, the TGI in the assay with SNB-75 CNS is 39.8 µM.

Regarding `CC1(C)N=C(N)N=C(N)N1CCCCc1ccccc1`, the TGI with 786-0 renal is above 100 µM; in the assay on COLO 205 colon, above 51.6 µM; in the assay with EKVX NSCLC, above 100 µM; with HCC-2998 colon, above 51 µM; in the assay on HCT-116 colon it was above 100 µM; with HOP-62 NSCLC it was above 100 µM. Further, the TGI in the assay on HS 578T breast was above 81.9 µM; in the assay on HT29 colon it was above 100 µM; with IGROV1 ovarian it was above 100 µM; with KM12 colon, above 100 µM; in the assay with MALME-3M melanoma it was 83.4 µM; in the assay on MDA-N it was above 100 µM. The TGI with NCI-H226 lung was above 83 µM; with OVCAR-5 ovarian, above 100 µM; with RXF 393 renal it was above 100 µM; in the assay with SF-268 CNS, above 100 µM; with SF-295 CNS it was above 62.6 µM; with SNB-19 CNS, above 100 µM. Further, in the assay on SNB-75 CNS, the TGI was 97.6 µM.

`CCCCn1c2c(n(CCCC)c1=[Se])-c1c(n(CCCC)c(=[Se])n1CCCC)S[Se][Se]S2`: the TGI with 786-0 renal is above 72.6 µM; in the assay with COLO 205 colon, 39.4 µM; with EKVX NSCLC it was above 100 µM; in the assay with HCC-2998 colon it was above 100 µM; in the assay on HCT-116 colon, above 56.2 µM; in the assay with HOP-62 NSCLC, 49.1 µM. The TGI in the assay with HS 578T breast is 80.5 µM; in the assay with HT29 colon, above 64.6 µM; in the assay with IGROV1 ovarian it was 18.5 µM; in the assay with KM12 colon it was above 59.3 µM; in the assay with MALME-3M melanoma, 15.4 µM; in the assay on MDA-N, above 100 µM. Moreover, the TGI is 39 µM in the assay with NCI-H226 lung; 47.6 µM with OVCAR-5 ovarian; above 71.4 µM with RXF 393 renal; above 100 µM in the assay on SF-268 CNS; 30.9 µM in the assay with SF-295 CNS; above 65.2 µM with SNB-19 CNS. This molecule also yielded a TGI in the assay on SNB-75 CNS of 44.7 µM.

Turning to `Fc1ccc(C(OCCN2CCC3CCC(C2)N3C/C=C/c2cccnc2)c2ccc(F)cc2)cc1` (stereo not given), the TGI worked out at 17.8 µM in the assay on 786-0 renal; 2.68 µM in the assay on COLO 205 colon; 25 µM with EKVX NSCLC; 15.6 µM with HCC-2998 colon; 19 µM in the assay on HCT-116 colon; 31 µM in the assay on HOP-62 NSCLC. The TGI is 31.7 µM in the assay on HS 578T breast; 14.6 µM in the assay with HT29 colon; 27.1 µM in the assay on IGROV1 ovarian; 26.3 µM in the assay with KM12 colon; 15 µM with MALME-3M melanoma; 23.8 µM in the assay on MDA-N. In addition, the TGI with NCI-H226 lung came out at 30.3 µM; with OVCAR-5 ovarian, 26.8 µM; with RXF 393 renal, 19.4 µM; with SF-268 CNS it was 26.2 µM; with SF-295 CNS, 22.2 µM; in the assay with SNB-19 CNS, 29.6 µM. The same molecule registered a TGI with SNB-75 CNS of 27.9 µM.

For the molecule `COc1cc(C2S/C(=C/c3ccccc3)C(=O)N2c2ccccn2)cc(OC)c1OC` (stereo not given), the TGI was 31.4 µM in the assay with 786-0 renal; above 78.8 µM in the assay on COLO 205 colon; 76.1 µM in the assay with EKVX NSCLC; 32.8 µM in the assay on HCC-2998 colon; 20.6 µM with HCT-116 colon; 48.8 µM in the assay with HOP-62 NSCLC. For the same molecule, the TGI was above 68 µM in the assay on HS 578T breast; above 47 µM in the assay on HT29 colon; 29.9 µM in the assay with IGROV1 ovarian; 29.4 µM with KM12 colon; 27.5 µM with MALME-3M melanoma; 34.4 µM in the assay with MDA-N. The TGI is above 96.4 µM in the assay with NCI-H226 lung; 41.2 µM in the assay on OVCAR-5 ovarian; 22.8 µM with RXF 393 renal; 36.2 µM with SF-268 CNS; above 83.3 µM in the assay on SF-295 CNS; 46.5 µM in the assay on SNB-19 CNS. Further, in the assay with SNB-75 CNS, the TGI is 39.7 µM.

Take `NNC(=O)CSc1nnc(CCCCCCCCc2nnc(SCC(=O)NN)o2)o1`: the TGI in the assay on 786-0 renal, in the assay on COLO 205 colon, with EKVX NSCLC, in the assay with HCC-2998 colon, in the assay on HCT-116 colon and in the assay on HOP-62 NSCLC was above 100 µM each time. The TGI in the assay on HS 578T breast, in the assay on HT29 colon, in the assay with IGROV1 ovarian, in the assay with KM12 colon, with MALME-3M melanoma and with MDA-N was above 100 µM each time. The TGI in the assay with NCI-H226 lung, in the assay on OVCAR-5 ovarian, in the assay with RXF 393 renal, with SF-268 CNS, in the assay with SF-295 CNS and in the assay with SNB-19 CNS was above 100 µM throughout. Further, the TGI in the assay with SNB-75 CNS is above 100 µM.

In the case of `Cc1cn(C2CC(O)C(Cn3nncc3Cn3ccc(=O)[nH]c3=O)O2)c(=O)[nH]c1=O` (stereo not given), the TGI in the assay on 786-0 renal, in the assay with COLO 205 colon, with EKVX NSCLC, with HCC-2998 colon, in the assay with HCT-116 colon and in the assay on HOP-62 NSCLC was above 100 µM each time. In addition, the TGI in the assay on HS 578T breast, with HT29 colon, in the assay on IGROV1 ovarian, in the assay on KM12 colon, with MALME-3M melanoma and in the assay with MDA-N was above 100 µM throughout. For the same molecule, the TGI with NCI-H226 lung, in the assay with OVCAR-5 ovarian, in the assay with RXF 393 renal, with SF-268 CNS, in the assay on SF-295 CNS and with SNB-19 CNS was above 100 µM throughout. In the assay with SNB-75 CNS, this molecule had a TGI above 100 µM.

For `C=C(C)COC(=O)COCC(=O)OCC(=C)C`, the TGI in the assay on 786-0 renal, with COLO 205 colon, with EKVX NSCLC, in the assay on HCC-2998 colon, with HCT-116 colon and in the assay on HOP-62 NSCLC was above 100 µM in each case. Further, the TGI with HS 578T breast, in the assay with HT29 colon, in the assay on IGROV1 ovarian, in the assay on KM12 colon, in the assay with MALME-3M melanoma and in the assay on MDA-N was above 100 µM in each case. In addition, the TGI in the assay with NCI-H226 lung, in the assay on OVCAR-5 ovarian, in the assay with RXF 393 renal, in the assay on SF-268 CNS, in the assay with SF-295 CNS and in the assay with SNB-19 CNS was above 100 µM in each case. The TGI in the assay on SNB-75 CNS is above 100 µM.

Take `CC(=O)NC1=CC(=O)C=C(Cl)C1=O`: the TGI with 786-0 renal, in the assay with COLO 205 colon, in the assay with EKVX NSCLC, in the assay on HCC-2998 colon, with HCT-116 colon and with HOP-62 NSCLC was above 100 µM throughout. Moreover, the TGI in the assay with HS 578T breast was above 100 µM; in the assay with HT29 colon, above 100 µM; with IGROV1 ovarian, above 100 µM; in the assay with KM12 colon, above 100 µM; in the assay on MALME-3M melanoma, 66 µM; with MDA-N it was 31 µM. Besides, the TGI in the assay on NCI-H226 lung, with OVCAR-5 ovarian, with RXF 393 renal, in the assay with SF-268 CNS, in the assay on SF-295 CNS and in the assay with SNB-19 CNS was above 100 µM each time. In addition, in the assay with SNB-75 CNS, the TGI is above 100 µM.

`CCN(CC)c1ccc2cc(-c3csc(-c4ccc(N(C)C)cc4)n3)c(=O)oc2c1`: the TGI with 786-0 renal, in the assay with COLO 205 colon, with EKVX NSCLC, in the assay on HCC-2998 colon, with HCT-116 colon and in the assay on HOP-62 NSCLC was above 100 µM throughout. Moreover, the TGI with HS 578T breast, in the assay on HT29 colon, with IGROV1 ovarian, in the assay on KM12 colon, in the assay with MALME-3M melanoma and with MDA-N was above 100 µM in each case. Besides, the TGI with NCI-H226 lung, with OVCAR-5 ovarian, in the assay with RXF 393 renal, in the assay on SF-268 CNS, in the assay with SF-295 CNS and with SNB-19 CNS was above 100 µM throughout. Also, in the assay with SNB-75 CNS, the TGI was above 100 µM.
